In patent US7666890B2, “Synthesis and herbicidal activity of 1- (2-substituted benzo[d]thiazol-5-yl)-1H-1,2,4-triazol-5(4H)-one derivatives” (Huazhong Normal University, priority 2007, dated 2010):

Assays:
Experiment in all cases: Test of herbicidal activities (greenhouse pot method)
Assay type in all cases: in vivo
Settings in all cases: single dose 300 g ai./h, treated before/after germination, 15 days later, greenhouse pot
[1] = system: Amaranthus retroflexus
Procedure, shortened: (§1)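 Weeds were sown in soil-filled pots at 15–30 °C and treated once by spray tower at 300 g ai./h, either before emergence or post-emergence at the 2-leaf stage, in three replicates with an untreated control. Symptoms were scored 15 days later into five classes from A (≥90%) to E (<50%).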

[2] = system: Brassica juncea
Procedure, shortened: as §1

[3] = system: Chenopodium album
Procedure, shortened: as §1

[4] = system: Digiatria sanguinalis
Procedure, shortened: as §1

[5] = system: Echinochloa crusgalli
Procedure, shortened: as §1

[6] = system: Setaria viridis
Procedure, shortened: as §1

In the case of Cc1nn(-c2cc3nc(SCc4coc5ccccc5c4=O)sc3cc2Br)c(=O)n1C(F)F [Compound 28], the “Herbicidal activity Amaranthus retroflexus (inhibition level)” value [1] is reported as “C (60 ≦ C < 80%)”, the “Herbicidal activity Brassica juncea (inhibition level)” value [2] is reported as “A (90 ≦ A ≦ 100%)” and the “Herbicidal activity Chenopodium album (inhibition level)” value [3] is reported as “C (60 ≦ C < 80%)”. The “Herbicidal activity Digiatria sanguinalis (inhibition level)” value [4] was “B (80 ≦ B < 90%)”, the “Herbicidal activity Echinochloa crusgalli (inhibition level)” value [5] was “B (80 ≦ B < 90%)” and the “Herbicidal activity Setaria viridis (inhibition level)” value [6] was “D (50 ≦ D < 60%)”.
In the case of Cc1ccc([N+](=O)[O-])c(CSc2nc3cc(-n4nc(C)n(C(F)F)c4=O)c(F)cc3s2)c1 [Compound 16], the “Herbicidal activity Amaranthus retroflexus (inhibition level)” value [1] is reported as “C (60 ≦ C < 80%)”, the “Herbicidal activity Brassica juncea (inhibition level)” value [2] is reported as “B (80 ≦ B < 90%)” and the “Herbicidal activity Chenopodium album (inhibition level)” value [3] is reported as “C (60 ≦ C < 80%)”. For the same molecule, the “Herbicidal activity Digiatria sanguinalis (inhibition level)” value [4] was “C (60 ≦ C < 80%)”, the “Herbicidal activity Echinochloa crusgalli (inhibition level)” value [5] was “C (60 ≦ C < 80%)” and the “Herbicidal activity Setaria viridis (inhibition level)” value [6] was “B (80 ≦ B < 90%)”.
In the case of Cc1nn(-c2cc3nc(SCc4cccc([N+](=O)[O-])c4)sc3cc2F)c(=O)n1C(F)F [Compound 13], the “Herbicidal activity Amaranthus retroflexus (inhibition level)” value [1] is reported as “A (90 ≦ A ≦ 100%)”, the “Herbicidal activity Brassica juncea (inhibition level)” value [2] is reported as “B (80 ≦ B < 90%)” and the “Herbicidal activity Chenopodium album (inhibition level)” value [3] is reported as “C (60 ≦ C < 80%)”. For the same molecule, the “Herbicidal activity Digiatria sanguinalis (inhibition level)” value [4] was “B (80 ≦ B < 90%)”, the “Herbicidal activity Echinochloa crusgalli (inhibition level)” value [5] was “C (60 ≦ C < 80%)” and the “Herbicidal activity Setaria viridis (inhibition level)” value [6] was “C (60 ≦ C < 80%)”.
In the case of Cc1nn(-c2cc3nc(SCc4ccc(F)cc4F)sc3cc2Cl)c(=O)n1C(F)F [Compound 8], the “Herbicidal activity Amaranthus retroflexus (inhibition level)” value [1] is reported as “C (60 ≦ C < 80%)”, the “Herbicidal activity Brassica juncea (inhibition level)” value [2] is reported as “C (60 ≦ C < 80%)” and the “Herbicidal activity Chenopodium album (inhibition level)” value [3] is reported as “C (60 ≦ C < 80%)”. For the same molecule, the “Herbicidal activity Digiatria sanguinalis (inhibition level)” value [4] was “B (80 ≦ B < 90%)”, the “Herbicidal activity Echinochloa crusgalli (inhibition level)” value [5] was “E (E < 50%)” and the “Herbicidal activity Setaria viridis (inhibition level)” value [6] was “C (60 ≦ C < 80%)”.
Cc1nn(-c2cc3nc(SCc4cccs4)sc3cc2F)c(=O)n1C(F)F [Compound 73] was tested, and the “Herbicidal activity Amaranthus retroflexus (inhibition level)” value [1] was “A (90 ≦ A ≦ 100%)”, the “Herbicidal activity Brassica juncea (inhibition level)” value [2] was “B (80 ≦ B < 90%)” and the “Herbicidal activity Chenopodium album (inhibition level)” value [3] was “A (90 ≦ A ≦ 100%)”. The “Herbicidal activity Digiatria sanguinalis (inhibition level)” value [4] was “A (90 ≦ A ≦ 100%)”, the “Herbicidal activity Echinochloa crusgalli (inhibition level)” value [5] was “B (80 ≦ B < 90%)” and the “Herbicidal activity Setaria viridis (inhibition level)” value [6] was “B (80 ≦ B < 90%)”.
In the case of Cc1nn(-c2cc3nc(SCc4ccc(Cl)cc4)sc3cc2Br)c(=O)n1C(F)F [Compound 25], the “Herbicidal activity Amaranthus retroflexus (inhibition level)” value [1] is reported as “E (E < 50%)”, the “Herbicidal activity Brassica juncea (inhibition level)” value [2] is reported as “C (60 ≦ C < 80%)” and the “Herbicidal activity Chenopodium album (inhibition level)” value [3] is reported as “E (E < 50%)”. The “Herbicidal activity Digiatria sanguinalis (inhibition level)” value [4] was “C (60 ≦ C < 80%)”, the “Herbicidal activity Echinochloa crusgalli (inhibition level)” value [5] was “D (50 ≦ D < 60%)” and the “Herbicidal activity Setaria viridis (inhibition level)” value [6] was “B (80 ≦ B < 90%)”.
Cc1nn(-c2cc3nc(SCc4cccc(F)c4)sc3cc2Cl)c(=O)n1C(F)F [Compound 7] was tested, and the “Herbicidal activity Amaranthus retroflexus (inhibition level)” value [1] was “B (80 ≦ B < 90%)”, the “Herbicidal activity Brassica juncea (inhibition level)” value [2] was “C (60 ≦ C < 80%)” and the “Herbicidal activity Chenopodium album (inhibition level)” value [3] was “E (E < 50%)”. The “Herbicidal activity Digiatria sanguinalis (inhibition level)” value [4] was “B (80 ≦ B < 90%)”, the “Herbicidal activity Echinochloa crusgalli (inhibition level)” value [5] was “E (E < 50%)” and the “Herbicidal activity Setaria viridis (inhibition level)” value [6] was “B (80 ≦ B < 90%)”.
Cc1nn(-c2cc3nc(S(=O)(=O)Cc4ccc(F)cc4F)sc3cc2Cl)c(=O)n1C(F)F [Compound 45] was tested, and the “Herbicidal activity Amaranthus retroflexus (inhibition level)” value [1] was “A (90 ≦ A ≦ 100%)”, the “Herbicidal activity Brassica juncea (inhibition level)” value [2] was “B (80 ≦ B < 90%)” and the “Herbicidal activity Chenopodium album (inhibition level)” value [3] was “B (80 ≦ B < 90%)”. For the same molecule, the “Herbicidal activity Digiatria sanguinalis (inhibition level)” value [4] was “A (90 ≦ A ≦ 100%)”, the “Herbicidal activity Echinochloa crusgalli (inhibition level)” value [5] was “E (E < 50%)” and the “Herbicidal activity Setaria viridis (inhibition level)” value [6] was “C (60 ≦ C < 80%)”.
For CCC[S+]([O-])c1nc2cc(-n3nc(C)n(C(F)F)c3=O)c(F)cc2s1 (stereo not drawn) [Compound 121], the “Herbicidal activity Amaranthus retroflexus (inhibition level)” value [1] was “D (50 ≦ D < 60%)”, the “Herbicidal activity Brassica juncea (inhibition level)” value [2] was “C (60 ≦ C < 80%)” and the “Herbicidal activity Chenopodium album (inhibition level)” value [3] was “A (90 ≦ A ≦ 100%)”. For the same molecule, the “Herbicidal activity Digiatria sanguinalis (inhibition level)” value [4] was “C (60 ≦ C < 80%)”, the “Herbicidal activity Echinochloa crusgalli (inhibition level)” value [5] was “E (E < 50%)” and the “Herbicidal activity Setaria viridis (inhibition level)” value [6] was “D (50 ≦ D < 60%)”.
In the case of Cc1nn(-c2cc3nc(SCc4ccc(Br)cc4)sc3cc2Cl)c(=O)n1C(F)F [Compound 6], the “Herbicidal activity Amaranthus retroflexus (inhibition level)” value [1] is reported as “B (80 ≦ B < 90%)”, the “Herbicidal activity Brassica juncea (inhibition level)” value [2] is reported as “C (60 ≦ C < 80%)” and the “Herbicidal activity Chenopodium album (inhibition level)” value [3] is reported as “B (80 ≦ B < 90%)”. For the same molecule, the “Herbicidal activity Digiatria sanguinalis (inhibition level)” value [4] was “E (E < 50%)”, the “Herbicidal activity Echinochloa crusgalli (inhibition level)” value [5] was “B (80 ≦ B < 90%)” and the “Herbicidal activity Setaria viridis (inhibition level)” value [6] was “C (60 ≦ C < 80%)”.
With CCSc1nc2cc(-n3nc(C)n(C(F)F)c3=O)c(Br)cc2s1 [Compound 80] the “Herbicidal activity Amaranthus retroflexus (inhibition level)” value [1] was “A (90 ≦ A ≦ 100%)”, the “Herbicidal activity Brassica juncea (inhibition level)” value [2] was “A (90 ≦ A ≦ 100%)” and the “Herbicidal activity Chenopodium album (inhibition level)” value [3] was “E (E < 50%)”. For the same molecule, the “Herbicidal activity Digiatria sanguinalis (inhibition level)” value [4] was “B (80 ≦ B < 90%)”, the “Herbicidal activity Echinochloa crusgalli (inhibition level)” value [5] was “A (90 ≦ A ≦ 100%)” and the “Herbicidal activity Setaria viridis (inhibition level)” value [6] was “A (90 ≦ A ≦ 100%)”.
For Cc1nn(-c2cc3nc(SCc4ccccc4)sc3cc2F)c(=O)n1C [Compound 30], the “Herbicidal activity Amaranthus retroflexus (inhibition level)” value [1] was “A (90 ≦ A ≦ 100%)”, the “Herbicidal activity Brassica juncea (inhibition level)” value [2] was “D (50 ≦ D < 60%)” and the “Herbicidal activity Chenopodium album (inhibition level)” value [3] was “C (60 ≦ C < 80%)”. For the same molecule, the “Herbicidal activity Digiatria sanguinalis (inhibition level)” value [4] was “B (80 ≦ B < 90%)”, the “Herbicidal activity Echinochloa crusgalli (inhibition level)” value [5] was “E (E < 50%)” and the “Herbicidal activity Setaria viridis (inhibition level)” value [6] was “B (80 ≦ B < 90%)”.
With CCCSc1nc2cc(-n3nc(C)n(C(F)F)c3=O)c(F)cc2s1 [Compound 92] the “Herbicidal activity Amaranthus retroflexus (inhibition level)” value [1] was “A (90 ≦ A ≦ 100%)”, the “Herbicidal activity Brassica juncea (inhibition level)” value [2] was “A (90 ≦ A ≦ 100%)” and the “Herbicidal activity Chenopodium album (inhibition level)” value [3] was “E (E < 50%)”. The “Herbicidal activity Digiatria sanguinalis (inhibition level)” value [4] was “B (80 ≦ B < 90%)”, the “Herbicidal activity Echinochloa crusgalli (inhibition level)” value [5] was “B (80 ≦ B < 90%)” and the “Herbicidal activity Setaria viridis (inhibition level)” value [6] was “C (60 ≦ C < 80%)”.
CCCSc1nc2cc(-n3nc(C)n(C(F)F)c3=O)c(Br)cc2s1 [Compound 81] was tested, and the “Herbicidal activity Amaranthus retroflexus (inhibition level)” value [1] was “A (90 ≦ A ≦ 100%)”, the “Herbicidal activity Brassica juncea (inhibition level)” value [2] was “A (90 ≦ A ≦ 100%)” and the “Herbicidal activity Chenopodium album (inhibition level)” value [3] was “B (80 ≦ B < 90%)”. The “Herbicidal activity Digiatria sanguinalis (inhibition level)” value [4] was “D (50 ≦ D < 60%)”, the “Herbicidal activity Echinochloa crusgalli (inhibition level)” value [5] was “B (80 ≦ B < 90%)” and the “Herbicidal activity Setaria viridis (inhibition level)” value [6] was “B (80 ≦ B < 90%)”.
For Cc1nn(-c2cc3nc(S(=O)(=O)Cc4ccc(Br)cc4)sc3cc2Cl)c(=O)n1C(F)F [Compound 42], the “Herbicidal activity Amaranthus retroflexus (inhibition level)” value [1] was “A (90 ≦ A ≦ 100%)”, the “Herbicidal activity Brassica juncea (inhibition level)” value [2] was “C (60 ≦ C < 80%)” and the “Herbicidal activity Chenopodium album (inhibition level)” value [3] was “D (50 ≦ D < 60%)”. For the same molecule, the “Herbicidal activity Digiatria sanguinalis (inhibition level)” value [4] was “A (90 ≦ A ≦ 100%)”, the “Herbicidal activity Echinochloa crusgalli (inhibition level)” value [5] was “E (E < 50%)” and the “Herbicidal activity Setaria viridis (inhibition level)” value [6] was “B (80 ≦ B < 90%)”.
With CSc1nc2cc(-n3nc(C(F)(F)F)n(C(F)F)c3=O)c(Cl)cc2s1 [Compound 125] the “Herbicidal activity Amaranthus retroflexus (inhibition level)” value [1] was “A (90 ≦ A ≦ 100%)”, the “Herbicidal activity Brassica juncea (inhibition level)” value [2] was “C (60 ≦ C < 80%)” and the “Herbicidal activity Chenopodium album (inhibition level)” value [3] was “B (80 ≦ B < 90%)”. The “Herbicidal activity Digiatria sanguinalis (inhibition level)” value [4] was “B (80 ≦ B < 90%)”, the “Herbicidal activity Echinochloa crusgalli (inhibition level)” value [5] was “B (80 ≦ B < 90%)” and the “Herbicidal activity Setaria viridis (inhibition level)” value [6] was “C (60 ≦ C < 80%)”.
